Assay: Nasogastric Tube Compatibility Study, impurities (HPLC)
Assay type: physicochemical
Experimental: Analytical HPLC Compatibility Study experiments (Example 2) were performed on Agilent 1200 Series, or equivalent; Waters XBridge C18 column, 5 μm 150×4.6 mm; mobile phase: Solvent A: 50 mM ammonium bicarbonate, pH 8.0; Solvent B: acetonitrile/methanol, 80:20 (v/v); Flow rate: 1 mL/min; Inj. Volume 60 μL; Autosampler Temp.: 5° C.; column temperature: 40° C.; the pooled limit of quantitation was 0.05% of 0.68 mg/mL; detection UV at 210 nm; sample concentration (as free base) assay: 0.034 mg/mL, impurity: 0.34 mg/mL; standard concentration (as free base) 0.034 mg/mL; PLOQ Std. 0.05% of 0.34 mg/mL; SST solution, 1% of 0.34 mg/mL (Impurities A, C, D, E, F, and G); diluent for standards 0.1N HCl; diluent for samples 0.1N HCl; run time, 40 min; gradient method: 0 min mobile phase A (90%) and mobile phase B (10%) to 30 min mobile phase A (0%), and mobile phase B (100%); then 30.1 min to 40 min mobile phase A (90%), mobile phase B (10%).
Three samples of pimavanserin in water (n=3) were prepared as follows. The content of one capsule was dropped into a 100 mL bottle, and the empty capsule shell was discarded. Approximately 40 mL of water was added into the bottle, and the bottle was swirled until the contents were disintegrated. Syringes were secured approximately 1 meter above the benchtop, and the plungers were removed. The Hydromer coating on the weighted top of the NG tube was activated by submerging the weight assembly in water for 10 seconds. The NG tube was flushed with 20 mL of water, and remaining water in the syringe and the NG tube was expelled with the help of the syringe plunger. The weighted tip of the NG tube was placed into 100 mL volumetric flasks on the benchtop.
For each sample, the aqueous dispersion was slowly poured into the syringe, allowing it to drain through the NG tube under gravity into the 100 mL collection volumetric flask. The original bottle containing the aqueous suspension of pimavanserin capsules was rinsed twice with 15 mL of water into the same syringe/NG tube system. The dispersion remaining in the syringe and NG tube was expelled with the help of the syringe plunger. Each flask was diluted to volume with 0.33N HCl (to make a final 0.1 N HCl concentration in the flask). The samples were sonicated for 15 minutes with intermediate shaking. A stir bar was added to the flask and the solution was stirred for 2 hours. An aliquot of each solution was centrifuged for 5 minutes at 10000 rom. The supernatant was transferred to a HPLC vial and injected for impurity analysis.
A “control” sample was prepared following the sample preparation procedure described above except it was not passed through a syringe/NG system. The content of one capsule was dropped into a 100 mL volumetric flask, and the empty capsule shell was discarded. Next 70 mL of water was added into the flask and swirled until the contents were completely disintegrated. The flask was diluted to volume with 0.33 N HCl (to make final 0.1N HCl concentration). The sample was sonicated for 15 minutes with intermediate shaking. A stir bar was dropped into the flask, and the solution was stirred for 2 hours. An aliquot was taken and centrifuged for 5 minutes at 10000 rpm. The supernatant was transferred to a HPLC vial and injected for impurity analysis.

Imp-D (NG Tube Control): 0.13 % w/w
Impurity RRT-0.36 (NG Tube Control): 0.05 % w/w
Impurity RRT-0.54 (NG Tube Control): 0.07 % w/w
Impurity RRT-0.96 (NG Tube Control): 0.06 % w/w
Impurity RRT-0.99 (NG Tube Control): 0.07 % w/w
Total degradation products and impurities (NG Tube Control): 0.38 % w/w
Imp-D (NG Tube Mean (n = 3)): 0.13 % w/w
Impurity RRT-0.36 (NG Tube Mean (n = 3)): 0.06 % w/w
Impurity RRT-0.54 (NG Tube Mean (n = 3)): 0.07 % w/w
Impurity RRT-0.85 (NG Tube Mean (n = 3)): 0.05 % w/w
Impurity RRT-0.96 (NG Tube Mean (n = 3)): 0.06 % w/w
Impurity RRT-0.99 (NG Tube Mean (n = 3)): 0.06 % w/w
Impurity RRT-1.11 (NG Tube Mean (n = 3)): 0.05 % w/w
Total degradation products and impurities (NG Tube Mean (n = 3)): 0.48 % w/w
Imp-D (NG Tube N = 1): 0.13 % w/w
Impurity RRT-0.36 (NG Tube N = 1): 0.05 % w/w
Impurity RRT-0.54 (NG Tube N = 1): 0.07 % w/w
Impurity RRT-0.85 (NG Tube N = 1): 0.05 % w/w
Impurity RRT-0.96 (NG Tube N = 1): 0.05 % w/w
Impurity RRT-0.99 (NG Tube N = 1): 0.07 % w/w
Total degradation products and impurities (NG Tube N = 1): 0.42 % w/w
Imp-D (NG Tube N = 2): 0.14 % w/w
Impurity RRT-0.36 (NG Tube N = 2): 0.06 % w/w
Impurity RRT-0.54 (NG Tube N = 2): 0.07 % w/w
Impurity RRT-0.96 (NG Tube N = 2): 0.06 % w/w
Impurity RRT-0.99 (NG Tube N = 2): 0.07 % w/w
Impurity RRT-1.11 (NG Tube N = 2): 0.05 % w/w
Total degradation products and impurities (NG Tube N = 2): 0.45 % w/w
Imp-D (NG Tube N = 3): 0.13 % w/w
Impurity RRT-0.99 (NG Tube N = 3): 0.05 % w/w
Total degradation products and impurities (NG Tube N = 3): 0.18 % w/w
impurity profile of compatibility samples versus control sample (NG tube): matched
unknown impurities (stability or recovery portions of the studies): < 0.1%
Structure (SMILES): CC(C)COc1ccc(CNC(=O)N(Cc2ccc(F)cc2)C2CCN(C)CC2)cc1 [Pimavanserin, N-(4-Fluorophenylmethyl)-N-(1-methylpiperidin-4-yl)-N′-(4-(2-methylpropyloxy)phenylmethyl)carbamide]
